Source: patent US20230091047A1 (priority 2019, published 2023)
Read-outs that look alike come from different tables or passages of the source.

Columns and labels:
[1] = system: HBV (HepG2.117 cell line, inducibly HBV producing); experiment: Anti-HBV activity: intracellular HBV DNA by real-time PCR in HepG2.117 cells after 3 days of treatment; format: cell-based, hepatitis B virus
How it was run: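 HepG2.117 cells replicate HBV under Tet-off control, without doxycycline. After induction of replication, cells were treated with serially diluted compound for 3 days, and intracellular HBV DNA was then quantified by real-time PCR with an HBV-specific primer set and probe.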

in vitro = format: cell-based; conditions: human, HepG2 or HepG2.117 cells, mean value; for CC50 at 4 days: 4-days incubation (values marked with *)
How it was run: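 Luminescent ATP quantitation served as the viability endpoint following a 3- or 4-day incubation with test compounds.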

[2] = Hepatitis B virus, HepG2.117, 72 h, HepG2.117 cells, intracellular HBV DNA by real-time PCR, 3 days of treatment, mean value; read-out: EC50 (μM, mean value)
[3] = ATPlite, 3-days incubation (not marked with *)
[4] = Hepatitis B virus, HepG2.117, 72 h, HepG2.117 cells, 3 days of treatment, intracellular HBV DNA by real-time PCR; mean value; read-out: EC50 (μM, mean value)
[5] = 3-days incubation (unmarked values), ATPlite

CNC(=O)c1ccc(-n2c(N[C@H](C)c3ccccc3OC)nc3c(c2=O)C[C@@H](C)N(C(=O)c2ccc(Cl)c(Cl)c2)C3)cc1 (single isomer, unassigned) [Compound C402a]
EC50 [1, 2]: 0.32 µM
CC50 at 3 days (in vitro; [3]): 13.8 µM

CNC(=O)c1ccc(-n2c(N[C@@H](C)c3ccc4c(ccn4C)c3)nc3c(c2=O)C[C@@H](C)N(C(=O)c2ccc(Cl)c(Cl)c2)C3)cc1 (single isomer, unassigned) [Compound C450b]
EC50 [1, 2]: 0.18 µM
CC50 at 3 days (in vitro; [3]): > 50 µM

CC(C)Nc1nc2c(c(=O)n1C1CCS(=O)(=O)CC1)CCN(C(=O)c1ccc(Cl)c(Cl)c1)C2 [Compound C120, 4-[7-(3,4-dichlorobenzoyl)-4-oxo-2-[(propan-2-yl)amino]-5,6,7,8-tetrahydropyrido[3,4-d]pyrimidin-3(4H)-yl]-1λ^6-thiane-1,1-dione]
EC50 [1, 4]: 7.36 µM
CC50 at 3 days (in vitro; [5]): > 50 µM

CC(C)Nc1nc2c(c(=O)n1-c1ccc(N3CCOCC3)cc1)C[C@@H](C)N(C(=O)c1ccc(Cl)c(Cl)c1)C2 [Compound C218, (6R)-7-(3,4-dichlorobenzoyl)-6-methyl-3-[4-(morpholin-4-yl)phenyl]-2-[(propan-2-yl)amino]-5,6,7,8-tetrahydropyrido[3,4-d]pyrimidin-4(3H)-one]
EC50 [1, 4]: 0.16 µM
CC50 at 3 days (in vitro; [5]): > 50 µM

CNC(=O)c1ccc(-n2c(N[C@H]3C[C@@H]3c3ccc(OC)cc3)nc3c(c2=O)C[C@@H](C)N(C(=O)c2ccc(Cl)c(Cl)c2)C3)cc1 [Compound C452]
EC50 ([1]; HepG2.117 cells, intracellular HBV DNA by real-time PCR, 3 days of treatment, mean value; read-out: EC50 (μM, mean value)): 2.91 µM
CC50 at 3 days (in vitro; [3]): > 50 µM

COc1ccccc1-n1c(NCCc2ccccc2)nc2c(c1=O)CCN(C(=O)c1ccc(Cl)c(Cl)c1)C2 [Compound C20, 7-(3,4-dichlorobenzoyl)-3-(2-methoxyphenyl)-2-[(2-phenylethyl)amino]-5,6,7,8-tetrahydropyrido[3,4-d]pyrimidin-4(3H)-one]
EC50 [1, 4]: 8.92 µM
CC50 at 4 days (in vitro; ATPlite): 23.1 µM

CNC(=O)c1ccc(-n2c(NC(C)C)nc3c(c2=O)C[C@@H](C)N(C(=O)c2ccc(Br)c(F)c2OC)C3)cc1 [Compound C512]
EC50 [1, 2]: 1.11 µM
CC50 at 3 days (in vitro; [3]): > 50 µM

CNC(=O)c1ccc(-n2c(N[C@@H](C)c3ccc(C#N)cc3)nc3c(c2=O)C[C@@H](C)N(C(=O)c2ccc(Cl)c(Cl)c2)C3)cc1 (single isomer, unassigned) [Compound C441b]
EC50 [1, 2]: 2.75 µM
CC50 at 3 days (in vitro; [3]): > 50 µM

CNC(=O)c1ccc(-n2c(N[C@H](C)c3cc(C)no3)nc3c(c2=O)C[C@@H](C)N(C(=O)c2ccc(Cl)c(Cl)c2)C3)cc1 (single isomer, unassigned) [Compound C433a]
EC50 [1, 2]: 1.89 µM
CC50 at 3 days (in vitro; [3]): > 50 µM

COC(=O)C1COCCN1c1ccc(-n2c(NC(C)C)nc3c(c2=O)CCN(C(=O)c2ccc(Cl)c(Cl)c2)C3)cc1 (stereo not drawn) [Compound C179, methyl 4-{4-[7-(3,4-dichlorobenzoyl)-4-oxo-2-[(propan-2-yl)amino]-5,6,7,8-tetrahydropyrido[3,4-d]pyrimidin-3(4H)-yl]phenyl}morpholine-3-carboxylate]
EC50 [1, 4]: 0.72 µM
CC50 at 3 days (in vitro; [5]): 19.3 µM

CNC(=O)c1ccc(-n2c(N3CCC[C@@H]3c3ccccc3)nc3c(c2=O)C[C@@H](C)N(C(=O)c2ccc(Cl)c(Cl)c2)C3)cc1 (single isomer, unassigned) [Compound C401a]
EC50 [1, 2]: 0.36 µM
CC50 at 3 days (in vitro; [3]): 13.8 µM

CC(C)Nc1nc2c(c(=O)n1-c1ccc(S(C)(=O)=O)cc1)CCN(C(=O)c1ccc(C(F)(F)F)c(Cl)c1)C2 [Compound C194, 7-[3-chloro-4-(trifluoromethyl)benzoyl]-3-[4-(methanesulfonyl)phenyl]-2-[(propan-2-yl)amino]-5,6,7,8-tetrahydropyrido[3,4-d]pyrimidin-4(3H)-one]
EC50 [1, 4]: 0.55 µM
CC50 at 3 days (in vitro; [5]): > 50 µM

COc1ccc(CNc2nc3c(c(=O)[nH]2)C[C@@H](C)N(C(=O)c2ccc(Cl)c(Cl)c2)C3)cc1 [Compound C63A, (6R)-7-(3,4-dichlorobenzoyl)-2-{[(4-methoxyphenyl)methyl]amino}-6-methyl-5,6,7,8-tetrahydropyrido[3,4-d]pyrimidin-4(3H)-one]
EC50 [1, 4]: 3.58 µM
CC50 at 3 days (in vitro; [5]): 30.4 µM

CNC(=O)c1ccc(-n2c(N[C@@H](C)c3ccc(OC(F)(F)F)cc3)nc3c(c2=O)C[C@@H](C)N(C(=O)c2ccc(Cl)c(Cl)c2)C3)cc1 (single isomer, unassigned) [Compound C440b]
EC50 [1, 2]: 0.07 µM
CC50 at 3 days (in vitro; [3]): 6.3 µM

COc1ccc(CNc2nc3c(c(=O)n2-c2ccccn2)CCN(C(=O)c2ccc(Cl)c(Cl)c2)C3)cc1 [Compound C78, 7-(3,4-dichlorobenzoyl)-2-{[(4-methoxyphenyl)methyl]amino}-3-(pyridin-2-yl)-5,6,7,8-tetrahydropyrido[3,4-d]pyrimidin-4(3H)-one]
EC50 [1, 4]: 2.11 µM
CC50 at 3 days (in vitro; [5]): 41.8 µM

CNc1noc2ccc(-n3c(NC(C)C)nc4c(c3=O)C[C@@H](C)N(C(=O)c3ccc(Cl)c(Cl)c3)C4)cc12 [Compound C263, (6R)-7-(3,4-dichlorobenzoyl)-6-methyl-3-[3-(methylamino)-1,2-benzoxazol-5-yl]-2-[(propan-2-yl)amino]-5,6,7,8-tetrahydropyrido[3,4-d]pyrimidin-4(3H)-one]
EC50 [1, 4]: 0.17 µM
CC50 at 3 days (in vitro; [5]): > 50 µM

CNC(=O)c1ccc(-n2c(NC(C)C)nc3c(c2=O)C[C@@H](C)N(C(=O)c2ccc(Br)c(F)c2C)C3)cc1 [Compound C581]
EC50 [1, 2]: 0.15 µM
CC50 at 3 days (in vitro; [3]): > 50 µM

Cc1c[nH]c(-c2ccc(-n3c(NC(C)C)nc4c(c3=O)C[C@@H](C)N(C(=O)c3ccc(Cl)c(Cl)c3)C4)cc2)n1 [Compound C250, (6R)-7-(3,4-dichlorobenzoyl)-6-methyl-3-[4-(4-methyl-1H-imidazol-2-yl)phenyl]-2-[(propan-2-yl)amino]-5,6,7,8-tetrahydropyrido[3,4-d]pyrimidin-4(3H)-one]
EC50 [1, 4]: 0.07 µM
CC50 at 3 days (in vitro; [5]): 8.9 µM

CNC(=O)c1ccc(-n2c(NC34CC(C3)C4)nc3c(c2=O)C[C@@H](C)N(C(=O)c2ccc(Cl)c(Cl)c2)C3)cc1 [Compound C251, 4-[(6R)-2-[(bicyclo[1.1.1]pentan-1-yl)amino]-7-(3,4-dichlorobenzoyl)-6-methyl-4-oxo-5,6,7,8-tetrahydropyrido[3,4-d]pyrimidin-3(4H)-yl]-N-methylbenzamide]
EC50 [1, 4]: 0.25 µM
CC50 at 3 days (in vitro; [5]): > 50 µM

CNC(=O)c1ccc(-n2c(NC(C)C)nc3c(c2=O)C[C@@H](C)N(C(=O)c2ccc(Cl)c(C(F)(F)F)c2)C3)nc1 [Compound C698]
EC50 [1, 4]: 0.02 µM
CC50 at 3 days (in vitro; 3-days incubation (unmarked values), ATPlite viability): > 50 µM

COc1ccc(CNc2nc3c(c(=O)n2CC2CCOCC2)CCN(C(=O)c2ccc(Cl)c(Cl)c2)C3)cc1 [Compound C65, 7-(3,4-dichlorobenzoyl)-2-{[(4-methoxyphenyl)methyl]amino}-3-[(oxan-4-yl)methyl]-5,6,7,8-tetrahydropyrido[3,4-d]pyrimidin-4(3H)-one]
EC50 [1, 4]: 2.72 µM
CC50 at 3 days (in vitro; [5]): 37.8 µM

CNC(=O)c1ccc(-n2c(NC(C)C)nc3c(c2=O)C[C@@H](C)N(C(=O)c2ccc4cncc(Br)c4c2)C3)cc1 [Compound C491]
EC50 [1, 2]: 15.3 µM
CC50 at 3 days (in vitro; [3]): > 50 µM

C=CCNc1nc2c(c(=O)n1CC=C)CCN(C(=O)c1ccc(Cl)c(Cl)c1)C2 [Compound C89, 7-(3,4-dichlorobenzoyl)-3-(prop-2-en-1-yl)-2-[(prop-2-en-1-yl)amino]-5,6,7,8-tetrahydropyrido[3,4-d]pyrimidin-4(3H)-one]
EC50 [1, 4]: 8.76 µM
CC50 at 3 days (in vitro; [5]): > 50 µM

CNC(=O)c1ccc(-n2c(N[C@@H](C)c3ccc(C(F)(F)F)cc3)nc3c(c2=O)C[C@@H](C)N(C(=O)c2ccc(Cl)c(Cl)c2)C3)cc1 (single isomer, unassigned) [Compound C413b]
EC50 [1, 2]: 4.13 µM
CC50 at 3 days (in vitro; [3]): 8.3 µM

CNC(=O)c1ccc(-n2c(N[C@@H](C)c3ccccc3Cl)nc3c(c2=O)C[C@@H](C)N(C(=O)c2ccc(Cl)c(Cl)c2)C3)cc1 [Compound C445]
EC50 [1, 2]: 0.28 µM
CC50 at 3 days (in vitro; [3]): 24.1 µM

COc1ccc(CNc2nc3c(c(=O)n2C2CCCN(S(C)(=O)=O)C2)CCN(C(=O)c2ccc(Cl)c(Cl)c2)C3)cc1 (stereo not drawn) [Compound C83, 7-(3,4-dichlorobenzoyl)-3-[1-(methanesulfonyl)piperidin-3-yl]-2-{[(4-methoxyphenyl)methyl]amino}-5,6,7,8-tetrahydropyrido[3,4-d]pyrimidin-4(3H)-one]
EC50 [1, 4]: 1.44 µM
CC50 at 3 days (in vitro; [5]): > 50 µM

COc1ccccc1CNc1nc2c(c(=O)n1-c1ccccc1OC)CCN(C(=O)c1ccc(Cl)c(Cl)c1)C2 [Compound C17, 7-(3,4-dichlorobenzoyl)-3-(2-methoxyphenyl)-2-{[(2-methoxyphenyl)methyl]amino}-5,6,7,8-tetrahydropyrido[3,4-d]pyrimidin-4(3H)-one]
EC50 [1, 4]: 0.97 µM
CC50 at 4 days (in vitro; ATPlite): 28.9 µM

CNC(=O)c1ccc(-n2c(NC(C)C)nc3c(c2=O)C[C@@H](C)N(C(=O)c2cc(C)c(C#N)c(C)c2)C3)cc1 [Compound C506]
EC50 [1, 2]: 0.94 µM
CC50 at 3 days (in vitro; [3]): > 50 µM

Cc1cc(C(=O)N2CCc3c(nc(NC(C)C)n(-c4ccc(S(C)(=O)=O)cc4)c3=O)C2)ccc1Cl [Compound C221, 7-(4-chloro-3-methylbenzoyl)-3-[4-(methanesulfonyl)phenyl]-2-[(propan-2-yl)amino]-5,6,7,8-tetrahydropyrido[3,4-d]pyrimidin-4(3H)-one]
EC50 [1, 4]: 1.58 µM
CC50 at 3 days (in vitro; [5]): > 50 µM

CNC(=O)c1ccc(-n2c(NC(C)C)nc3c(c2=O)C[C@@H](C)N(C(=O)c2ccc(C)c(Cl)c2)C3)cc1 [Compound C514]
EC50 [1, 2]: 0.61 µM
CC50 at 3 days (in vitro; [3]): > 50 µM
